Experiments:
Type in all cases: biochemical
3′-OH nucleotides [1] = assay: Purification (polishing) of heated 3′-blocked nucleotides with Klenow polymerase and different templates, then 2×151 cycle sequencing on MINISEQ (FIG. 8); settings: Klenow polymerase, 30 minutes at 37° C., nucleotides heated 5 hours at 55° C.
Experimental: FIG. 8 is a plot of phasing and prephasing during polymerization of 3′-blocked nucleotides that were purified using different conditions. More specifically, an aqueous solution of 3′-blocked nucleotides blocked with azidomethyl groups was heated for 5 hours at 55° C. so as to simulate nucleotide stress conditions and convert a portion of the 3′-blocked nucleotides to 3′-OH nucleotides. The resulting aqueous mixture of 3′-blocked nucleotides and 3′-OH nucleotides was purified for 30 minutes at 37° C. in a manner such as described with reference to FIGS. 1A-1B and 3, using the Klenow polymerase and different conditions, e.g., different templates, and different concentrations of templates, such as described further below. The purified 3′-blocked nucleotides then were used in a sequencing reaction, using 2×151 cycle runs on the MINISEQ® sequencing-by-synthesis instrument (Ilumina, Inc., San Diego Calif.) using the PhiX library as templates. The purified nucleotides behaved similarly in the two sequencing reads (R1 and R2). The accumulated prephasing over 150 cycles of read 1 (R1 C150% prephasing weight) and the accumulated phasing over 150 cycles of read 1 (R1 C150% phasing weight) after 3′-blocked nucleotide polymerization was measured for the purified 3′-blocked nucleotides, as well as for heated and unpurified 3′-blocked nucleotides and for unheated 3′-blocked nucleotides.
The effect of concentration of a first example template was determined. More specifically, the next data points to the right (“50 nM”) correspond to polymerization of 3′-blocked nucleotides that had been heated as indicated above and were purified using 50 nM of a 20N template of sequence 5′-NNNNNNNNNNNNNNNNNNNNCGGCCATATAACTGGTAGCTT-3′ (SEQ ID NO: 5), whereN are degenerated bases, combined in equimolar amount with a primer oligonucleotide sequence AAGCTACCAGTTATATGGCCG (SEQ ID NO: 6). […] From a comparison of the data points corresponding to different concentrations of the 20N template, it may be understood that with increased concentration of 20N template, prephasing approached a similar prephasing as for the unheated (“std”) 3′-blocked nucleotides.
Different templates were used to determine their effect on phasing and prephasing. More specifically, the next data points to the right (“4N”) correspond to polymerization of 3′-blocked nucleotides that had been heated as indicated above and were purified using 200 nM of a 4N template of sequence 5′-NNN NCGGC CAT ATA ACT GGT AGCTT-3′ (SEQ ID NO: 7) where N are degenerated bases, combined in equimolar amount with primer oligonucleotide sequence AAGCTACCAGTTATATGGCCG (SEQ ID NO: 6). […] The next data points to the right (“6N”) correspond to polymerization of 3′-blocked nucleotides that had been heated as indicated above and were purified using 200 nM of a 6N template of sequence 5′-[…]-3′ (SEQ ID NO: 8), combined in equimolar amount with primer oligonucleotide sequence AAGCTACCAGTTATATGGCCG (SEQ ID NO: 6).
The next data points to the right correspond to polymerization of 3′-blocked nucleotides that had been heated as indicated above and were purified using 200 nM of a mixture of 4 hairpin templates, each template corresponding to one base, of respective sequences GGGGGGGGGGGGCGGCCATATAACTGGTCACTCCAGTTATATGGCCG (hairpin G) (SEQ ID NO: 9), TTTTTTTTTTTTCGGCCATAT AACTGG TCACTCCAGTTATATGGCCG (hairpin T) (SEQ ID NO: 10), CCCCCCCCCCCCCGGCCATAT AACTGG TCACTCCAGTTATATGGCCG (hairpin C) (SEQ ID NO: 11), AAAAAAAAAAAACGGCCATATAACTGGTCACTCCAGTTATATGGCCG (hairpin A) (SEQ ID NO: 12). The hairpin templates were added to the reaction at the same concentration to reach a final concentration of 200 nM of DNA. […]

3′-OH nucleotides [2] = assay: Purification with Taq polymerase at different temperatures and nucleotide concentrations, then 2×26 cycle sequencing on MISEQ (FIG. 11); settings: 30 minutes, 0.5 mM or 1 mM nucleotides, control about 0.1%
Experimental: FIG. 11 is a plot of prephasing during polymerization of 3′-blocked nucleotides that were purified to remove 3′-OH nucleotides using different temperatures and concentrations of 3′-blocked nucleotides. Similarly as for Example 1, an aqueous solution of 3′-blocked nucleotides blocked with azidomethyl groups was heated for 5 hours at 55° C. so as to convert a portion of the 3′-blocked nucleotides to 3′-OH nucleotides. The resulting aqueous mixture of 3′-blocked nucleotides and 3′-OH nucleotides was purified for 30 minutes in a manner such as described with reference to FIGS. 1A-1B and 3, using 10× of an hp oligomer template with 20 degenerated bases (NNNNNNNNNNNNNNNNNNNN CGGCCATATAACTGGTAGCTTTTTTAAGCTACC AGTT AT ATG GCC G (SEQ ID NO. 1)), 10× of the Taq polymerase and either 0.5 mM or 1 mM of the heated 3′-blocked nucleotides, at a variety of temperatures. The purified 3′-blocked nucleotides then were polymerized using 2×26 cycle runs on the MISEQ® sequencing-by-synthesis instrument (Illumina, Inc., San Diego Calif.) using the PhiX library as templates. The normalized prephasing was measured for the purified 3′-blocked nucleotides, as well as for heated and unpurified Y-blocked nucleotides and for unheated Y-blocked nucleotides. […]

3′-OH nucleotides [3] = assay: Purification of heated 3′-blocked nucleotides with different polymerases and temperatures, then 2×26 cycle sequencing on MINISEQ (FIG. 9); settings: 30 minutes, hp template with 20 degenerated bases, nucleotides heated 5 hours at 55° C.
Experimental: FIG. 9 is a plot of phasing and prephasing during polymerization of 3′-blocked nucleotides that were purified to remove 3′-OH nucleotides using different polymerases and different temperatures. More specifically, similarly as for Example 1, an aqueous solution of 3′-blocked nucleotides blocked with azidomethyl groups was heated for 5 hours at 55° C. so as to convert a portion of the 3′-blocked nucleotides to 3′-OH nucleotides. The resulting aqueous mixture of 3′-blocked nucleotides and 3′-OH nucleotides was purified for 30 minutes in a manner such as described with reference to FIGS. 1A-1B and 3, using an hp oligomer template with 20 degenerated bases (meaning that at each position, one of the four bases could be incorporated; since this is random, each oligomer should have a different sequence) and different polymerases and different temperatures such as described further below. The purified 3′-blocked nucleotides then were polymerized using 2×26 cycle runs on the MINISEQ® sequencing-by-synthesis instrument (Illumina, Inc., San Diego Calif.) using the PhiX library as templates. The slope adjusted prephasing and phasing were measured for the purified 3′-blocked nucleotides, as well as for heated and unpurified 3′-blocked nucleotides and for unheated 3′-blocked nucleotides.
Different polymerases were used at different temperatures to determine their effect on phasing and prephasing. More specifically, the next data points to the right (“Vent polishing 60 C”) correspond to polymerization of 3′-blocked nucleotides that had been heated as indicated above and were purified using the Deep Vent polymerase at 60° C. […] From a comparison of performance of the different polymerases, it may be understood that using the Deep Vent polymerase at 60° C. provided similar phasing and prephasing as for the lower baseline “no stress” in which the 3′-blocked nucleotides were not heated. Additionally, it may be understood that using the Taq polymerase at the experimental temperatures provided even less prephasing than for the lower baseline “no stress” in which the 3′-blocked nucleotides were not heated. Accordingly, it may be understood that the Taq polymerase removed from solution not only the 3′-OH nucleotides that were generated using heating, but also at least some of the 3′-OH nucleotides that were present even without heating. Under the particular experimental conditions in this example, the Taq polymerase appeared to provide better performance than Deep Vent, and neither Deep Vent or Taq appeared to detrimentally influence phasing.

Q: How did the “R1 C150 phasing weight” value (3′-OH nucleotides [1]; 50 nM template) turn out when “5′-NNNNNNNNNNNNNNNNNNNNCGGCCATATAACTGGTAGCTT-3′ [20N template]” was run?
A: Its value is “about 12%”.

Q: And the “R1 C150 prephasing weight” value (3′-OH nucleotides [1]; 50 nM template)?
A: Its value is “about 24%”.

Q: And the “R1 C150 phasing weight” value (3′-OH nucleotides [1]; 200 nM template)?
A: The value was “about 18.5%”.

Q: What about the “R1 C150 prephasing weight” value (3′-OH nucleotides [1]; 200 nM template) of the same molecule?
A: The value was “about 16.5%”.

Q: And the “R1 C150 phasing weight” value (3′-OH nucleotides [1]; 300 nM template)?
A: The value was “about 19%”.

Q: And the “R1 C150 prephasing weight” value (3′-OH nucleotides [1]; 300 nM template)?
A: The value was “about 13%”.

Q: And the “R1 C150 phasing weight” value (3′-OH nucleotides [1]; 500 nM template)?
A: The value was “about 23%”.

Q: What about the “R1 C150 prephasing weight” value (3′-OH nucleotides [1]; 500 nM template) of the same molecule?
A: The value was “about 17%”.

Q: Which results are given for “5′-NNN NCGGC CAT ATA ACT GGT AGCTT-3′ (DNA NNNNCGGCCATATAACTGGTAGCTT; degenerate-base DNA template for purifying nucleotides, chemistry not given here) [4N template]”?
A: R1 C150 phasing weight (3′-OH nucleotides [1]; 200 nM template): about 18.5%; R1 C150 prephasing weight (3′-OH nucleotides [1]; 200 nM template): about 21%

Q: How did the “R1 C150 phasing weight” value (3′-OH nucleotides [1]; 200 nM template) turn out when “5′-NNNNNNCGGCCATATAACTGGTAGCTT-3′ (degenerate-base DNA template, chemistry not given here) [6N template]” was run?
A: Its value is “about 15%”.

Q: What about the “R1 C150 prephasing weight” value (3′-OH nucleotides [1]; 200 nM template) of the same molecule?
A: Its value is “about 17.5%”.

Q: For “Taq polymerase: Thermus aquaticus DNA polymerase I, thermostable polishing polymerase”, which normalized prephasing (3′-OH nucleotides [2]; purified at 53° C.) is on record?
A: Its normalized prephasing is “significantly lower than the control”.

Q: And the normalized prephasing (3′-OH nucleotides [2]; purified at 60° C.)?
A: Its normalized prephasing is “significantly lower than the control”.

Q: What about the normalized phasing (3′-OH nucleotides [3]; purified at 37° C.) of the same molecule?
A: Its normalized phasing is “about 0.13%”.

Q: And the normalized prephasing (3′-OH nucleotides [3]; purified at 37° C.)?
A: The normalized prephasing was “about 0.09%”.

Q: And the normalized phasing (3′-OH nucleotides [3]; purified at 45° C.)?
A: Its normalized phasing is “about 0.12%”.

Q: What about the normalized prephasing (3′-OH nucleotides [3]; purified at 45° C.) of the same molecule?
A: Its normalized prephasing is “about 0.08%”.

Q: What about the normalized phasing (3′-OH nucleotides [3]; purified at 60° C.) of the same molecule?
A: Its normalized phasing is “about 0.12%”.

Q: What about the normalized prephasing (3′-OH nucleotides [3]; purified at 60° C.) of the same molecule?
A: Its normalized prephasing is “about 0.09%”.

B1: NNNNNNNNNNNNNNNNNNNN CGGCCATATAACTGGTAGCTTTTTTAAGCTACC AGTT AT ATG GCC G (nucleic acid)
DNA: NNNNNNNNNNNNNNNNNNNNCGGCCATATAACTGGTAGCTTTTTTAAGCTACCAGTTATATGGCCG
modifications: hairpin template with 20 degenerate bases, chemistry not given here
Q: With B1 as the molecule, how does the “R1 C150 phasing weight” value (3′-OH nucleotides [1]; 200 nM template) read?
A: The value was “about 12%”.

Q: And the “R1 C150 prephasing weight” value (3′-OH nucleotides [1]; 200 nM template)?
A: The value was “about 16%”.

Reference: patent US20220389500A1, “PURIFYING AND POLYMERIZING 3'-BLOCKED NUCLEOTIDES” (ILLUMINA, INC., priority 2021, published 2022)
